# Laboratory results: patent publication EP0551518A1, “QUINOLINECARBOXYLIC ACID DERIVATIVE” (NIPPON SHINYAKU COMPANY, LIMITED, priority 1990, dated 1992)
# Key:
# Format in all cases: cell-based
# [1] = tested on: Staphylococcus aureus Smith; test: Determination of minimal inhibitory concentration of growth (MIC)-1, agar plate dilution method; settings: Staphylococcus aureus Smith; agar plate dilution, 10⁶ CFU/ml, 37°C, 18 hours; read-out: MIC
# Procedure: (§1) Method: MIC was determined by the agar plate dilution method in accordance with the standard protocol of Japan Society of Chemotherapy (cf. Chemotherapy 29 (1), 76-79, 1981). Each bacterial culture obtained by 18-hour incubation in a sensitivity assay bouillon medium at 37°C was diluted to 10⁶ CFU/ml with the same medium. Using a microplanter, a sensitivity assay agar medium containing the test drug was inoculated with the diluted culture and incubated at 37°C for 18 hours. The MIC value was then determined. As reference drugs, 6-fluoro-1-methyl-4-oxo-7-(1-piperazinyl)-4H-[1,3]thiazeto[3,2-a]quinoline-3-carboxylic acid (referred to as control), ciprofloxacin (CPFX) and ofloxacin (OFLX) were used.
# [2] = tested on: Staphylococcus epider-midis IFO 12993; test: as above; settings: Staphylococcus, IFO12993, 18 h, Staphylococcus epider-midis IFO 12993; agar plate dilution, 10⁶ CFU/ml, 37°C, 18 hours; read-out: MIC
# Procedure: as §1
# [3] = tested on: Staphylococcus aureus 209-P JC-1; test: as above; settings: Staphylococcus aureus, 209P, 18 h, Staphylococcus aureus 209-P JC-1; agar plate dilution, 10⁶ CFU/ml, 37°C, 18 hours; read-out: MIC
# Procedure: as §1
# Escherichia coli KC-14 = test: as above; settings: Escherichia coli, KC14, 18 h, 10⁶ CFU/ml, 37°C, read-out: MIC
# Procedure: as §1
# [4] = tested on: Staphylococcus aureus OWPH 1984 (MRSA); test: as above; settings: Staphylococcus aureus, MRSA, 18 h, Staphylococcus aureus OWPH 1984 (MRSA); agar plate dilution, 10⁶ CFU/ml, 37°C, 18 hours; read-out: MIC
# Procedure: as §1
# [5] = tested on: Pseudomonas aeruginosa IFO 3445; test: as above; settings: Pseudomonas aeruginosa, IFO3445, 18 h, Pseudomonas aeruginosa IFO 3445; agar plate dilution, 10⁶ CFU/ml, 37°C, 18 hours; read-out: MIC
# Procedure: as §1
# [6] = tested on: Micrococcus luteus ATCC 9341; test: as above; settings: ATCC9341; Micrococcus luteus ATCC 9341; agar plate dilution, 10⁶ CFU/ml, 37°C, 18 hours; read-out: MIC
# Procedure: as §1
# [7] = tested on: Enterococcus faecalis ATCC 29212; test: as above; settings: ATCC29212; Enterococcus faecalis ATCC 29212; agar plate dilution, 10⁶ CFU/ml, 37°C, 18 hours; read-out: MIC
# Procedure: as §1
# Proteus vulgaris HX-19 = test: as above; settings: Proteus vulgaris, HX19, 18 h, Proteus vulgaris HX-19; agar plate dilution, 10⁶ CFU/ml, 37°C, 18 hours; read-out: MIC
# Procedure: as §1
# [8] = tested on: Staphylococcus aureus OWPH 2125 (MRSA, PCA^r ); test: as above; settings: Staphylococcus aureus, MRSA, 18 h, Staphylococcus aureus OWPH 2125 (MRSA, PCA^r); agar plate dilution, 10⁶ CFU/ml, 37°C, 18 hours; read-out: MIC
# Procedure: as §1
# [9] = tested on: Bacillus subtilis ATCC 6633; test: as above; settings: ATCC6633; Bacillus subtilis ATCC 6633; agar plate dilution, 10⁶ CFU/ml, 37°C, 18 hours; read-out: MIC
# Procedure: as §1
# S. aureus Sh 54 = test: Determination of minimal inhibitory concentration (MIC)-2, new quinolone-resistant MRSA; settings: Staphylococcus aureus, SH54, 18 h; S. aureus Sh 54, new quinolone-resistant and methicillin-resistant; same procedure as Test Example 1
# Procedure: as §1
# (§2) The antibacterial activity of the compounds obtained in Example 4, Example 25 and Example 26 of the present invention was assayed by the same procedure as in Test Example 1. As reference drugs, 6-fluoro-1-methyl-4-oxo-7-(1-piperazinyl)-4H-[1,3]-thiazeto[3,2-a]quinoline-3-carboxylic acid (referred to as Control), norfloxacin (NFLX) and tosufloxacin (TFLX) were used.
# S. aureus OWPH 2124 = test: as above; settings: Staphylococcus aureus, OWPH2124, 18 h; S. aureus OWPH 2124, new quinolone-resistant and methicillin-resistant; same procedure as Test Example 1
# Procedure: as §1, §2
# S. aureus OWPH 1786 = test: as above; settings: Staphylococcus aureus, OWPH1786, 18 h; S. aureus OWPH 1786, new quinolone-resistant and methicillin-resistant; same procedure as Test Example 1
# Procedure: as §1, §2
# S. aureus Sh 2 = test: as above; settings: Staphylococcus aureus, SH2, 18 h; S. aureus Sh 2, new quinolone-resistant and methicillin-resistant; same procedure as Test Example 1
# Procedure: as §1, §2
# S. aureus OWPH 1793 = test: as above; settings: Staphylococcus aureus, OWPH1793, 18 h; S. aureus OWPH 1793, new quinolone-resistant and methicillin-resistant; same procedure as Test Example 1
# Procedure: as §1, §2
# S. aureus OWPH 2128 = test: as above; settings: Staphylococcus aureus, OWPH2128, 18 h; S. aureus OWPH 2128, new quinolone-resistant and methicillin-resistant; same procedure as Test Example 1
# Procedure: as §1, §2
# S. aureus OWPH 1792 = test: as above; settings: Staphylococcus aureus, OWPH1792, 18 h; S. aureus OWPH 1792, new quinolone-resistant and methicillin-resistant; same procedure as Test Example 1
# Procedure: as §1, §2
# S. aureus Sh 8 = test: as above; settings: Staphylococcus aureus, SH8, 18 h; S. aureus Sh 8, new quinolone-resistant and methicillin-resistant; same procedure as Test Example 1
# Procedure: as §1, §2
# S. aureus OWPH 2127 = test: as above; settings: Staphylococcus aureus, OWPH2127, 18 h; S. aureus OWPH 2127, new quinolone-resistant and methicillin-resistant; same procedure as Test Example 1
# Procedure: as §1, §2
# S. aureus OWPH 2134 = test: as above; settings: Staphylococcus aureus, OWPH2134, 18 h; S. aureus OWPH 2134, new quinolone-resistant and methicillin-resistant; same procedure as Test Example 1
# Procedure: as §1, §2
# S. aureus Sh 44 = test: as above; settings: Staphylococcus aureus, SH44, 18 h; S. aureus Sh 44, new quinolone-resistant and methicillin-resistant; same procedure as Test Example 1
# Procedure: as §1, §2
# S. aureus Sh 47 = test: as above; settings: Staphylococcus aureus, SH47, 18 h; S. aureus Sh 47, new quinolone-resistant and methicillin-resistant; same procedure as Test Example 1
# Procedure: as §1, §2
# S. aureus OWPH 1799 = test: as above; settings: Staphylococcus aureus, OWPH1799, 18 h; S. aureus OWPH 1799, new quinolone-resistant and methicillin-resistant; same procedure as Test Example 1
# Procedure: as §1, §2
# S. aureus OWPH 2133 = test: as above; settings: Staphylococcus aureus, OWPH2133, 18 h; S. aureus OWPH 2133, new quinolone-resistant and methicillin-resistant; same procedure as Test Example 1
# Procedure: as §1, §2
# S. aureus OWPH 1770 = test: as above; settings: Staphylococcus aureus, OWPH1770, 18 h; S. aureus OWPH 1770, new quinolone-resistant and methicillin-resistant; same procedure as Test Example 1
# Procedure: as §1, §2
# S. aureus OWPH 1773 = test: as above; settings: Staphylococcus aureus, OWPH1773, 18 h; S. aureus OWPH 1773, new quinolone-resistant and methicillin-resistant; same procedure as Test Example 1
# Procedure: as §1, §2
# S. aureus OWPH 1796 = test: as above; settings: Staphylococcus aureus, OWPH1796, 18 h; S. aureus OWPH 1796, new quinolone-resistant and methicillin-resistant; same procedure as Test Example 1
# Procedure: as §1, §2
MIC [1],MIC [2],MIC [3],MIC (Escherichia coli KC-14),MIC [4],MIC [5],MIC [6],MIC [7],MIC (Proteus vulgaris HX-19),MIC [8],MIC [9],MIC (S. aureus Sh 54),MIC (S. aureus OWPH 2124),MIC (S. aureus OWPH 1786),MIC (S. aureus Sh 2),MIC (S. aureus OWPH 1793),MIC (S. aureus OWPH 2128),MIC (S. aureus OWPH 1792),MIC (S. aureus Sh 8),MIC (S. aureus OWPH 2127),SMILES,also measured
≤ 0.006 µg/mL,0.006 µg/mL,≤ 0.006 µg/mL,0.05 µg/mL,0.012 µg/mL,0.2 µg/mL,0.2 µg/mL,0.05 µg/mL,0.025 µg/mL,0.012 µg/mL,≤ 6 ng/mL,0.2 µg/mL,0.39 µg/mL,0.39 µg/mL,0.39 µg/mL,0.39 µg/mL,0.39 µg/mL,0.39 µg/mL,0.2 µg/mL,0.39 µg/mL,"CC1Sc2c(C(=O)O)c(=O)c3cc(F)c(-c4ccc(N)cc4)c(F)c3n21 (centres unmarked) [Example 25, 7-(4-Aminophenyl)-6,8-difluoro-1-methyl-4-oxo-4H-[1,3]thiazeto[3,2-a]quinoline-3-carboxylic acid]",MIC (S. aureus OWPH 2134): 0.2 µg/mL; MIC (S. aureus Sh 44): 0.2 µg/mL; MIC (S. aureus Sh 47): 0.39 µg/mL; MIC (S. aureus OWPH 1799): 0.39 µg/mL; MIC (S. aureus OWPH 2133): 0.39 µg/mL; MIC (S. aureus OWPH 1770): 0.1 µg/mL; MIC (S. aureus OWPH 1773): 0.2 µg/mL; MIC (S. aureus OWPH 1796): 0.2 µg/mL
0.012 µg/mL,0.025 µg/mL,0.025 µg/mL,0.78 µg/mL,0.025 µg/mL,3.13 µg/mL,0.78 µg/mL,0.2 µg/mL,0.39 µg/mL,0.1 µg/mL,≤ 6 ng/mL,0.78 µg/mL,0.39 µg/mL,0.78 µg/mL,1.56 µg/mL,1.56 µg/mL,1.56 µg/mL,1.56 µg/mL,0.78 µg/mL,1.56 µg/mL,"COc1c(-c2ccccc2)c(F)cc2c(=O)c(C(=O)O)c3n(c12)C(C)S3 (centres unmarked) [Example 26, 6-Fluoro-8-methoxy-1-methyl-4-oxo-7-phenyl-4H-[1,3]thiazeto[3,2-a]quinoline-3-carboxylic acid]",MIC (S. aureus OWPH 2134): 0.78 µg/mL; MIC (S. aureus Sh 44): 0.78 µg/mL; MIC (S. aureus Sh 47): 0.78 µg/mL; MIC (S. aureus OWPH 1799): 1.56 µg/mL; MIC (S. aureus OWPH 2133): 1.56 µg/mL; MIC (S. aureus OWPH 1770): 0.39 µg/mL; MIC (S. aureus OWPH 1773): 0.39 µg/mL; MIC (S. aureus OWPH 1796): 0.78 µg/mL
